Results on 20 compounds are retold here after patent US10017535B2, “Amphiphilic compounds with neuroprotective properties” (USTAV ORGANICKE CHEMIE A BIOCHEMIE AV CR, v.v.i., priority 2014, dated 2018).

The target of data set [1] is T1, NR1-1a/NR2B NMDA receptor (Rattus norvegicus, UniProt P35439+Q00960).
T1 construct: expressed in transfected cells; host or cells: HEK293 cells (ATCC CRL1573)
The data set can be described thus: Patch-clamp inhibition of glutamate-evoked currents at recombinant NMDA receptors in transfected HEK293 cells. The data set is classed as cell-based. How it is done:
Transfected cells were identified by means of fluorescent green protein (GFP) fluorescence. Its genus was transfected together with the both receptor subunit genes.
Steroid-containing solutions were prepared from fresh solution (20 mmol·l^−1, of steroid dissolved in dimethyl sulfoxide, DMSO), which was added to the extracellular solution containing 1 mmol·l^−1 glutamic acid and 10 μmol·l^−1 of glycine. Identical concentrations of DMSO were added to all other extracellular solutions.
Current responses produced by extracellular application of glutamic acid solution (1 mmol·l^−1) were measured from the whole cell by patch-clamp technique, which is used for the study of transport of charged particles through model and also natural biological membranes. The currents were measured at membrane potential maintained at −60 mV and +60 mV.
Same amounts (0.3 μg) of cDNA coding NR1, NR2 and GFP (green fluorescent protein) (pQBI 25, Takara, Japan) were mixed with 0.9 μl of Matra-A Reagent (IBA, Göttingen, Germany) and added to confluent HEK293 cells cultivated in v 24-pit cultivating plate. After trypsination, the cells were re-suspended in Opti-MEM® I containing 1% fetal bovine serum. Subsequently, 20 mmol·l^−1 MgCl2, 1 mmol l^−1 D,L-2-amino-5-phosphonopentanoic acid, 3 mmol·l^−1 kynurenic acid was added to the mixture and cells were inoculated on the polylysine-coated glass plates having 25 mm in diameter. The following genes coding NMDA receptor subunits were used for transfection: NR1-1 a (GenBank accession No. U08261) and NR2B (GenBank accession No. M91562).
HEK293 Cultured cells were used for electrophysiological investigations with a latency of 16-40 h after transfection. Whole-cell currents were measured by patch-clamp amplifier (Axopatch 1D; Axon Instruments, Inc. Foster City, USA) after capacitance and serial resistance (<10 MΩ) compensation to 80-90%. Agonist-induced responses were filtered to 1 kHz (8-pole Bessel filter; Frequency Devices, Haverhill, USA), digitized with sampling frequency of 5 kHz and analyzed by pClamp version 9 software (Axon Instruments, USA). […] Extracellular solution (ECS) contained 160 mmol·l^−1 sodium chloride, 2.5 mmol·l^−1 potassium chloride, 10 mmol·l^−1 HEPES, 10 mmol·l^−1 glucose, 0.2 mmol·l^−1 EDTA a 0.7 mmol·l^−1 calcium chloride (pH adjusted to 7.3 by sodium hydroxide solution). Glycine was added to both testing and control solution. Moreover, bicuculline (10 μmol·l^−1) and tetrodotoxin (0.5 μmol·l^−1) was added to hippocampal cultures. Steroid-containing solutions were prepared from fresh solution (20 mmol·l^−1) of steroid dissolved in dimethyl sulfoxide (DMSO). Same concentrations of DMSO were used in all extracellular solutions. Control and experimental solutions were applied via microprocessor-controlled perfusion system with approx. rate of solution exchange in areas adjacent to cells reaching ˜10 ms.
Current responses produced by 100 μmol·l^−1 of NMDA (in the case of hipocampal neurones), or by 1 mmol·l^−1 of glutamate (on recombinant NMDA receptors) were measured at membrane potential maintained at −60 mV. […] Relative effect of steroid-induced inhibition was used for calculating IC50.

Where [2] appears, read: calculated from relative steroid-induced inhibition, Hill's coefficient 1.2, read-out: IC50.
The mark [3] stands for this setting: HEK293, read-out: Mean % change ± SD.

Counter-ions that a name gives are not always drawn. Like-named read-outs stand apart in the source and are kept apart here.

T1 sequence (Q00960 27-1482, other chains not shown): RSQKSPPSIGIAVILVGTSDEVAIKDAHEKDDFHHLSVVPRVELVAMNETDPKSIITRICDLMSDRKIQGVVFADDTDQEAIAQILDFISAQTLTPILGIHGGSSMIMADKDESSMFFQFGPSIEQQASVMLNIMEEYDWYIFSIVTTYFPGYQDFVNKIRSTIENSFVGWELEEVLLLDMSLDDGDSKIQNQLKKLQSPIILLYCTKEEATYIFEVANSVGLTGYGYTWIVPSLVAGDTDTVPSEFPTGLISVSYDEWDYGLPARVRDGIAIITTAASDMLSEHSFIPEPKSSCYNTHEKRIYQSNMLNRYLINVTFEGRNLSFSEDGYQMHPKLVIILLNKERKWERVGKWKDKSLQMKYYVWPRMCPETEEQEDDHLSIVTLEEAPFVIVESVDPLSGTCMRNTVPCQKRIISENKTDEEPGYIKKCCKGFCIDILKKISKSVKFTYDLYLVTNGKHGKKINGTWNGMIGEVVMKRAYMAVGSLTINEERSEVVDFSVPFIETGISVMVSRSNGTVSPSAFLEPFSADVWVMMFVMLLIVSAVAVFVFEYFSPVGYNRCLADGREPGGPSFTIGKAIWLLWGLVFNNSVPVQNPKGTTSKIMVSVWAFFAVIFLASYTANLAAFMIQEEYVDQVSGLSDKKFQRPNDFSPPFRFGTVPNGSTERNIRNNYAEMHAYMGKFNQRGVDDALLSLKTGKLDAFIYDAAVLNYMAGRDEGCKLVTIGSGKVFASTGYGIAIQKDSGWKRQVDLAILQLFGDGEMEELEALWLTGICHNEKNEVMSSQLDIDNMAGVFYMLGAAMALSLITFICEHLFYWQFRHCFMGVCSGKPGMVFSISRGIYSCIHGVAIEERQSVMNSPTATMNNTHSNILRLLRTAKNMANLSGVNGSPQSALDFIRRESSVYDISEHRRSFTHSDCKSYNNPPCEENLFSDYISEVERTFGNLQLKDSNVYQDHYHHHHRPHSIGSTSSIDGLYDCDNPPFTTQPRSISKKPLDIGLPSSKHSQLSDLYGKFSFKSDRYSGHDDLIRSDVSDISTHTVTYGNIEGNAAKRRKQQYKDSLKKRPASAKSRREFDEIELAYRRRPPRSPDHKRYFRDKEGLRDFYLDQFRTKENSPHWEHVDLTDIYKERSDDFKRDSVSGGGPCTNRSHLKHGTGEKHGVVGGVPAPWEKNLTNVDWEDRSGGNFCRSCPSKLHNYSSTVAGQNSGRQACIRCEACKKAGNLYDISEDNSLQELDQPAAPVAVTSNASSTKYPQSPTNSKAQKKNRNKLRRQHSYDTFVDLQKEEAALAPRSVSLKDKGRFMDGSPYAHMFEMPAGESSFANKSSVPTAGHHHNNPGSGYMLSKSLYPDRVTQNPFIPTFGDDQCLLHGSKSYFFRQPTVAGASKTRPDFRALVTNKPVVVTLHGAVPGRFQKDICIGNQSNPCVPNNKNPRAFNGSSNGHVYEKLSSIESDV

Turning to `COC(=O)C1(C)CCC2C(CCC3CC(OS(=O)(=O)O)CCC32C)C1C` (as salt: salt) [Compound 22, Pyridinium (2R,4aS,7S,8S,10aR)-7-(methoxycarbonyl)-4a,7,8-trimethyltetra-decahydrophenanthren-2-yl 2-sulfate], the melting point was 145 to 147 °C. With `C[C@@H]1CC[C@H]2[C@@H](CC[C@@H]3C[C@H](OS(=O)(=O)O)CC[C@@]32C)C1` (as salt: salt) [Compound 35, Pyridinium (2R,4aS,4bS,7R,8aS,10aR)-4a,7-dimethyltetradecahydrophenanthren-2-yl 2-sulfate], the melting point was 147 to 149 °C. Take `C[C@]12CC[C@@H](OS(=O)(=O)O)C[C@H]1CC[C@@H]1[C@@H]2CC[C@]2(C)[C@@H](I)CC[C@@H]12` (as salt: salt) [Compound 93, Pyridinium (3R,5R,8R,9S,10S,13S,14S,17S)-17-iodo-10,13-dimethylhexadecahydro-1H-cyclopenta[a]phenanthren-3-yl 3-sulfate]: the melting point was 118 to 120 °C. The compound `C[C@]12CC[C@@H](OS(=O)(=O)O)C[C@H]1CC[C@@H]1[C@@H]2CC[C@@]2(C)[C@H]1CCC2(F)F` (as salt: salt) [Compound 95, Pyridinium (3R,5R,8R,9S,10S,13S,14S)-17,17-difluoro-10,13-dimethylhexadecahydro-1H-cyclopenta[a]phenanthren-3-yl 3-sulfate] gave a melting point of 185 to 187 °C. Turning to `CC12CCCCC1C1CCC3CC(OS(=O)(=O)O)CCC3(C)C1CC2` (as salt: salt) [Compound 101, Pyridinium (2R,4aS,4bS,6aS,10bS,6aS,12aR)-4a,6a-dimethyloctadecahydrochrysen-2-yl 2-sulfate], the melting point is 173 to 174 °C.

On to `C=C1C[C@H]2[C@@H]3CC[C@@H]4C[C@H](OS(=O)(=O)O)CC[C@]4(C)[C@H]3CC[C@]2(C)C1` (as salt: salt) [Compound 114, Pyridinium (3R,5R,8S,9S,10S,13R,14S)-10,13-dimethyl-16-methylenhexadekhydro-1H-cyclopenta[a]phenanthren-3-yl 3-sulfate], for which the melting point lay in the range of 180 to 182 °C. Regarding `COC(=O)[C@@]1(C)CC[C@H]2[C@@H](CC[C@@H]3C[C@H](OS(=O)(=O)O)CC[C@@]32C)C1` (as salt: sulfate) [Compound 40, Methyl (2S,4aS,4bS,7R,8aR,10aS)-2,4b-dimethyl-7-(sulfooxy)tetradecahydrophenanthren-2-carboxylate], the melting point lay in the range of 115 to 118 °C.

Take `C[C@]12CC[C@@H](OC(=O)CCC(=O)O)C[C@H]1CC[C@H]1CCCC[C@@H]12` [Compound 9, 4-(((2R,4aS,4bS,8aR,10aR)-4a-Methyltetradecahydrophenanthren-2-yl)oxy)-4-oxobutanoic Acid]: the melting point lay in the range of 131 to 133 °C.

`C[C@@H]1CC[C@H]2[C@@H](CC[C@@H]3C[C@H](OC(=O)CCC(=O)O)CC[C@@]32C)C1` [Compound 34, 4-(((2R,4aS,4bS,7R,8aS,10aR)-4a,7-Dimethyltetradecahydrophenanthren-2-yl)oxy)-4-oxobutanoic acid]: the melting point lay within 119 to 121 °C. The inhibition at 10 µM in data set [1] (HEK293, steroid concentration 10 μmol·l^−1, 1 mmol·l^−1 glutamate, −60 mV, read-out: Mean % change ± SD) turned out to be 27 ± 10%. In data set [1] (setting [2]), the IC50 was 23.2 µM. For the compound `COC[C@@]1(C)CC[C@H]2[C@@H](CC[C@@H]3C[C@H](OC(=O)CCC(=O)O)CC[C@@]32C)C1` [Compound 45, 4-(((2R,4aS,4bS,7S,8aS,10aR)-7-(Methoxymethyl)-4a,7-dimethyltetradecahydrophenanthren-2-yl)oxy)-4-oxobutanoic acid], the melting point is 107 to 109 °C. As for `C[C@@]12CCC[C@H]1[C@@H]1CC[C@@H]3C[C@H](NC(=O)C(=O)O)CC[C@]3(C)[C@H]1CC2` [Compound 59, 2-(((3R,5R,8S,9S,10S,13S,14S)-10,13-Dimethylhexadecahydro-1H-cyclopenta[a]phenanthren-3-yl)amino)-2-oxoacetic acid], the melting point is 191 to 193 °C. For the same compound, in data set [1] (setting [3]), the inhibition at 10 µM stood at 32 ± 5%. Further, the IC50 in data set [1] (setting [2]) was 23.2 µM. As for `C[C@@]12CCC[C@H]1[C@@H]1CC[C@@H]3C[C@H](NC(=O)CC(=O)O)CC[C@]3(C)[C@H]1CC2` [Compound 61], the melting point was in the range of 126 to 128 °C. Also, the concentration for half-maximal inhibition (IC50) in data set [1] was found to be 15.4 µM. Moreover, the inhibition at 10 µM in data set [1] (setting [3]) was 40 ± 5.7%. For the compound `C[C@]12CC[C@@H](CC(=O)O)C[C@H]1CC[C@@H]1[C@@H]2CC[C@]2(C)C(=O)CC[C@@H]12` [Compound 74, 2-((3R,5R,8R,9S,10S,13S,14S)-10,13-Dimethyl-17-oxohexadecahydro-1H-cyclopenta[a]phenanthren-3-yl)acetic acid], the melting point fell in the range of 130 to 133 °C. Besides, the inhibition at 50 µM in data set [1] (setting [3]) was 58.6 ± 9.3%. Also, the IC50 in data set [1] (setting [2]) is 38.7 µM. `C=C(C)[C@H]1CC[C@H]2[C@@H]3CC[C@@H]4C[C@H](OC(=O)CC(=O)O)CC[C@]4(C)[C@H]3CC[C@]12C` [Compound 88, 3-(((3R,5R,8R,9S,10S,13S,14S,17R)-10,13-Dimethyl-17-(prop-1-en-2-yl)hexadecahydro-4H-cyclopenta[a]phenanthren-3-yl)oxy)-3-oxopropanoic acid] registered a melting point of 147.7 to 148.3 °C. In addition, the inhibition at 10 µM in data set [1] (setting [3]) worked out at 46 ± 0.9%. In addition, the IC50 in data set [1] (setting [2]) is 11.8 µM.

The compound `C[C@@]12CCCCC1[C@@H]1CC[C@@H]3C[C@H](OC(=O)CC(=O)O)CC[C@]3(C)[C@H]1CC2` (stereo partly drawn) [Compound 102, 3-(((2R,4aS,4bS,6aS,10bS,12aR)-4a,6a-Dimethyloctadecahydrochrysen-2-yl)oxy)-3-oxopropanoic acid] showed a melting point of 145.3 to 147.2 °C.

`C[C@@]12CCCCC1[C@@H]1CC[C@@H]3C[C@H](OC(=O)CCC(=O)O)CC[C@]3(C)[C@H]1CC2` (stereo partly drawn) [Compound 103, 4-(((2R,4aS,4bS,6aS,10bS,12aR)-4a,6a-Dimethyloctadecahydrochrysen-2-yl)oxy)-4-oxobutanoic acid] came in with a melting point of 136 to 138 °C. Take `C[C@H]1CC[C@H]2[C@@H]3CC[C@@H]4C[C@H](NC(=O)C(=O)[O-])CC[C@]4(C)[C@H]3CC[C@]12C.[Na+]` [Compound 138, Sodium 2-oxo-2-(((3R,5R,8S,9S,10S,13R,14S,17S)-10,13,17-trimethylhexadecahydro-1H-cyclopenta[a]phenanthren-3-yl)amino)acetate]: the melting point was in the range of 330 to 334.6 °C. Besides, in data set [1] (setting [3]), the inhibition at 1 µM was 17.5 ± 1.8%. Moreover, in data set [1] (setting [2]), the IC50 is 3.7 µM. Turning to `C[C@H]1CC[C@H]2[C@@H]3CC[C@@H]4C[C@H](NC(=O)CC(=O)O)CC[C@]4(C)[C@H]3CC[C@]12C` [Compound 140, 3-Oxo-3-(((3R,5R,8S,9S,10S,13R,14S,17S)-10,13,17-trimethylhexadecahydro-1H-cyclopenta[a]phenanthren-3-yl)amino)propanoic acid], the melting point lay in the range of 147.8 to 149.4 °C. Besides, the inhibition at 1 µM in data set [1] (setting [3]) was determined as 17.8 ± 6.5%. Besides, in data set [1] (setting [2]), the IC50 is 3.9 µM. For the compound `CC[C@@H](C)C1CC[C@H]2[C@@H]3CC[C@@H]4C[C@H](NC(=O)C(=O)[O-])CC[C@]4(C)[C@H]3CC[C@]12C.[Na+]` (stereo partly drawn) [Compound 148, Sodium 2-(((3R,5R,8R,9S,10S,13R,14S)-17-((R)-sec-butyl)-10,13-dimethylhexadecahydro-1H-cyclopenta[a]phenanthren-3-yl)amino)-2-oxoacetate], the melting point was 182 to 184 °C (dec.). Besides, the inhibition at 1 µM in data set [1] (setting [3]) worked out at 7.3 ± 3%. Further, in data set [1] (setting [2]), the IC50 was 9.4 µM.

On to `CC[C@@H](C)C1CC[C@H]2[C@@H]3CC[C@@H]4C[C@H](NC(=O)CC(=O)O)CC[C@]4(C)[C@H]3CC[C@]12C` (stereo partly drawn) [Compound 149, 3-(((3R,5R,8R,9S,10S,13R,14S)-17-((R)-Sec-butyl)-10,13-dimethylhexadecahydro-1H-cyclopenta[a]phenanthren-3-yl)amino)-3-oxopropanoic acid], for which the melting point was in the range of 163 to 165 °C. In addition, the inhibition at 10 µM in data set [1] (setting [3]) amounted to 33.6 ± 6.1%. Besides, the half-maximal inhibitory concentration (IC50) in data set [1] (setting [2]) is 18.3 µM.
